Source: PMC12748989 (Nature Communications, 2025)

Experiments:
[1] = test system: MDA-MB-231 cells
[2] = test system: PBMC; conditions: 12.5 µM

For CC[C@H](C)[C@H](N)C(=O)N[C@@H](CC(N)=O)C(=O)N[C@@H](CC(C)C)C(=O)N[C@@H](CCCCN)C(=O)N[C@@H](C)C(=O)N[C@H](C(=O)N[C@@H](C)C(=O)N[C@@H](C)C(=O)N[C@@H](CC(C)C)C(=O)N[C@@H](C)C(=O)N[C@@H](CCCCN)C(=O)N[C@@H](CCCCN)C(=O)N[C@H](C(=O)N[C@@H](CC(C)C)C(N)=O)[C@@H](C)CC)C(C)C [V6], the “Average (percentage cell inhibition), Dmastoparan MDA-MB231 12.5uM” value [1] was 10.4144% and the “Average (percentage cell inhibition), Mastoparan PBMC” value [2] was -4.76%.
With CC[C@H](C)[C@H](N)C(=O)N[C@@H](CC(N)=O)C(=O)N[C@@H](CC(N)=O)C(=O)N[C@@H](CCCCN)C(=O)N[C@@H](C)C(=O)N[C@@H](CC(C)C)C(=O)N[C@@H](C)C(=O)N[C@@H](C)C(=O)N[C@@H](CC(C)C)C(=O)N[C@@H](C)C(=O)N[C@@H](CCCCN)C(=O)N[C@@H](CCCCN)C(=O)N[C@H](C(=O)N[C@@H](CC(C)C)C(N)=O)[C@@H](C)CC [N3] the “Average (percentage cell inhibition), Dmastoparan MDA-MB231 12.5uM” value [1] was 47.2847% and the “Average (percentage cell inhibition), Mastoparan PBMC” value [2] was -0.8054%.
For CC[C@H](C)[C@H](N)C(=O)N[C@@H](CC(N)=O)C(=O)N[C@@H](CO)C(=O)N[C@@H](CCCCN)C(=O)N[C@@H](C)C(=O)N[C@@H](CC(C)C)C(=O)N[C@@H](C)C(=O)N[C@@H](C)C(=O)N[C@@H](CC(C)C)C(=O)N[C@@H](C)C(=O)N[C@@H](CCCCN)C(=O)N[C@@H](CCCCN)C(=O)N[C@H](C(=O)N[C@@H](CC(C)C)C(N)=O)[C@@H](C)CC [S3], the “Average (percentage cell inhibition), Dmastoparan MDA-MB231 12.5uM” value [1] was 12.1099% and the “Average (percentage cell inhibition), Mastoparan PBMC” value [2] was 5.178%.
With CC[C@H](C)[C@H](N)C(=O)N[C@@H](CC(N)=O)C(=O)N[C@@H](CC(C)C)C(=O)N[C@@H](CCCCN)C(=O)N[C@@H](C)C(=O)N[C@@H](CC(C)C)C(=O)N[C@@H](C)C(=O)N[C@@H](C)C(=O)N[C@@H](CC(C)C)C(=O)N[C@@H](C)C(=O)N[C@@H](CC(N)=O)C(=O)N[C@@H](CCCCN)C(=O)N[C@H](C(=O)N[C@@H](CC(C)C)C(N)=O)[C@@H](C)CC [N11] the “Average (percentage cell inhibition), Dmastoparan MDA-MB231 12.5uM” value [1] was 40.5108% and the “Average (percentage cell inhibition), Mastoparan PBMC” value [2] was 4.624%.
With CC[C@H](C)[C@H](N)C(=O)N[C@@H](CC(N)=O)C(=O)N[C@@H](Cc1ccc(O)cc1)C(=O)N[C@@H](CCCCN)C(=O)N[C@@H](C)C(=O)N[C@@H](CC(C)C)C(=O)N[C@@H](C)C(=O)N[C@@H](C)C(=O)N[C@@H](CC(C)C)C(=O)N[C@@H](C)C(=O)N[C@@H](CCCCN)C(=O)N[C@@H](CCCCN)C(=O)N[C@H](C(=O)N[C@@H](CC(C)C)C(N)=O)[C@@H](C)CC [Y3] the “Average (percentage cell inhibition), Dmastoparan MDA-MB231 12.5uM” value [1] was 39.9685% and the “Average (percentage cell inhibition), Mastoparan PBMC” value [2] was 5.097%.
In the case of CC[C@H](C)[C@H](N)C(=O)N[C@@H](CC(N)=O)C(=O)N[C@@H](CC(C)C)C(=O)N[C@@H](CO)C(=O)N[C@@H](C)C(=O)N[C@@H](CC(C)C)C(=O)N[C@@H](C)C(=O)N[C@@H](C)C(=O)N[C@@H](CC(C)C)C(=O)N[C@@H](C)C(=O)N[C@@H](CCCCN)C(=O)N[C@@H](CCCCN)C(=O)N[C@H](C(=O)N[C@@H](CC(C)C)C(N)=O)[C@@H](C)CC [S4], the “Average (percentage cell inhibition), Dmastoparan MDA-MB231 12.5uM” value [1] is reported as 28.0357% and the “Average (percentage cell inhibition), Mastoparan PBMC” value [2] is reported as 7.7%.
With CC[C@H](C)[C@H](N)C(=O)N[C@@H](CC(N)=O)C(=O)N[C@@H](CC(C)C)C(=O)N[C@@H](CCCCN)C(=O)N[C@@H](C)C(=O)N[C@@H](Cc1ccc(O)cc1)C(=O)N[C@@H](C)C(=O)N[C@@H](C)C(=O)N[C@@H](CC(C)C)C(=O)N[C@@H](C)C(=O)N[C@@H](CCCCN)C(=O)N[C@@H](CCCCN)C(=O)N[C@H](C(=O)N[C@@H](CC(C)C)C(N)=O)[C@@H](C)CC [Y6] the “Average (percentage cell inhibition), Dmastoparan MDA-MB231 12.5uM” value [1] was 22.8055% and the “Average (percentage cell inhibition), Mastoparan PBMC” value [2] was -4.904%.
CC[C@H](C)[C@H](N)C(=O)N[C@@H](CC(N)=O)C(=O)N[C@@H](CC(C)C)C(=O)N[C@@H](CCCCN)C(=O)N[C@@H](C)C(=O)N[C@@H](CC(C)C)C(=O)N[C@@H](CC(C)C)C(=O)N[C@@H](C)C(=O)N[C@@H](CC(C)C)C(=O)N[C@@H](C)C(=O)N[C@@H](CCCCN)C(=O)N[C@@H](CCCCN)C(=O)N[C@H](C(=O)N[C@@H](CC(C)C)C(N)=O)[C@@H](C)CC [L7] was tested, and the “Average (percentage cell inhibition), Dmastoparan MDA-MB231 12.5uM” value [1] was 74.1173% and the “Average (percentage cell inhibition), Mastoparan PBMC” value [2] was 35.4322%.
In the case of CC[C@H](C)[C@H](N)C(=O)N[C@@H](CC(N)=O)C(=O)N[C@@H](CC(C)C)C(=O)N[C@@H](CCCCN)C(=O)N[C@@H](C)C(=O)N[C@@H](CC(C)C)C(=O)N[C@@H](C)C(=O)N[C@@H](C)C(=O)N[C@@H](CCCNC(=N)N)C(=O)N[C@@H](C)C(=O)N[C@@H](CCCCN)C(=O)N[C@@H](CCCCN)C(=O)N[C@H](C(=O)N[C@@H](CC(C)C)C(N)=O)[C@@H](C)CC [R9], the “Average (percentage cell inhibition), Dmastoparan MDA-MB231 12.5uM” value [1] is reported as 12.7524% and the “Average (percentage cell inhibition), Mastoparan PBMC” value [2] is reported as 5.887%.
CC[C@H](C)[C@H](N)C(=O)N[C@@H](CC(N)=O)C(=O)N[C@@H](CC(C)C)C(=O)N[C@@H](CCCCN)C(=O)N[C@@H](C)C(=O)N[C@@H](CC(C)C)C(=O)N[C@@H](C)C(=O)N[C@@H](C)C(=O)N[C@@H](CC(C)C)C(=O)N[C@@H](C)C(=O)N[C@@H](C)C(=O)N[C@@H](CCCCN)C(=O)N[C@H](C(=O)N[C@@H](CC(C)C)C(N)=O)[C@@H](C)CC [A11] was tested, and the “Average (percentage cell inhibition), Dmastoparan MDA-MB231 12.5uM” value [1] was 45.8441% and the “Average (percentage cell inhibition), Mastoparan PBMC” value [2] was 11.43%.
For CC[C@H](C)[C@H](NC(=O)[C@H](CCCCN)NC(=O)[C@H](CCCCN)NC(=O)[C@H](C)NC(=O)[C@H](CC(C)C)NC(=O)[C@H](C)NC(=O)[C@H](C)NC(=O)[C@H](CC(C)C)NC(=O)[C@H](C)NC(=O)[C@H](CCCCN)NC(=O)[C@H](CC(C)C)NC(=O)[C@H](CC(N)=O)NC(=O)[C@@H](N)C(C)C)C(=O)N[C@@H](CC(C)C)C(N)=O [V1], the “Average (percentage cell inhibition), Dmastoparan MDA-MB231 12.5uM” value [1] was 28.5856% and the “Average (percentage cell inhibition), Mastoparan PBMC” value [2] was 10.9012%.
CC[C@H](C)[C@H](N)C(=O)N[C@@H](CC(N)=O)C(=O)N[C@@H](CC(C)C)C(=O)N[C@@H](CCCCN)C(=O)N[C@@H](C)C(=O)N[C@@H](CC(C)C)C(=O)N[C@@H](C)C(=O)N[C@@H](C)C(=O)N[C@@H](CC(C)C)C(=O)N[C@@H](C)C(=O)N[C@@H](CCCCN)C(=O)N[C@@H](CCCCN)C(=O)N[C@H](C(=O)N[C@@H](CCCNC(=N)N)C(N)=O)[C@@H](C)CC [R14] was tested, and the “Average (percentage cell inhibition), Dmastoparan MDA-MB231 12.5uM” value [1] was 9.085% and the “Average (percentage cell inhibition), Mastoparan PBMC” value [2] was -1.726%.
In the case of CC[C@H](C)[C@H](N)C(=O)N[C@@H](CC(N)=O)C(=O)N[C@@H](CC(C)C)C(=O)N[C@@H](CCCCN)C(=O)N[C@@H](C)C(=O)N[C@@H](CC(C)C)C(=O)N[C@@H](C)C(=O)N[C@@H](C)C(=O)N[C@@H](CC(C)C)C(=O)N[C@@H](C)C(=O)N[C@@H](CCCCN)C(=O)N[C@H](C(=O)N[C@H](C(=O)N[C@@H](CC(C)C)C(N)=O)[C@@H](C)CC)C(C)C [V12], the “Average (percentage cell inhibition), Dmastoparan MDA-MB231 12.5uM” value [1] is reported as 51.0657% and the “Average (percentage cell inhibition), Mastoparan PBMC” value [2] is reported as 18.2596%.
CC[C@H](C)[C@H](N)C(=O)N[C@@H](CC(N)=O)C(=O)N[C@@H](CCCCN)C(=O)N[C@@H](CCCCN)C(=O)N[C@@H](C)C(=O)N[C@@H](CC(C)C)C(=O)N[C@@H](C)C(=O)N[C@@H](C)C(=O)N[C@@H](CC(C)C)C(=O)N[C@@H](C)C(=O)N[C@@H](CCCCN)C(=O)N[C@@H](CCCCN)C(=O)N[C@H](C(=O)N[C@@H](CC(C)C)C(N)=O)[C@@H](C)CC [K3] was tested, and the “Average (percentage cell inhibition), Dmastoparan MDA-MB231 12.5uM” value [1] was 21.542% and the “Average (percentage cell inhibition), Mastoparan PBMC” value [2] was -9.841%.
In the case of CC[C@H](C)[C@H](N)C(=O)N[C@@H](CC(N)=O)C(=O)N[C@@H](Cc1c[nH]cn1)C(=O)N[C@@H](CCCCN)C(=O)N[C@@H](C)C(=O)N[C@@H](CC(C)C)C(=O)N[C@@H](C)C(=O)N[C@@H](C)C(=O)N[C@@H](CC(C)C)C(=O)N[C@@H](C)C(=O)N[C@@H](CCCCN)C(=O)N[C@@H](CCCCN)C(=O)N[C@H](C(=O)N[C@@H](CC(C)C)C(N)=O)[C@@H](C)CC [H3], the “Average (percentage cell inhibition), Dmastoparan MDA-MB231 12.5uM” value [1] is reported as 10.8919% and the “Average (percentage cell inhibition), Mastoparan PBMC” value [2] is reported as -4.438%.
CC[C@H](C)[C@H](N)C(=O)N[C@@H](CC(N)=O)C(=O)N[C@@H](CC(C)C)C(=O)N[C@@H](CCCCN)C(=O)N[C@@H](C)C(=O)N[C@@H](CC(C)C)C(=O)N[C@@H](C)C(=O)N[C@@H](C)C(=O)N[C@H](C(=O)N[C@@H](C)C(=O)N[C@@H](CCCCN)C(=O)N[C@@H](CCCCN)C(=O)N[C@H](C(=O)N[C@@H](CC(C)C)C(N)=O)[C@@H](C)CC)[C@@H](C)O [T9] was tested, and the “Average (percentage cell inhibition), Dmastoparan MDA-MB231 12.5uM” value [1] was 18.2148% and the “Average (percentage cell inhibition), Mastoparan PBMC” value [2] was 2.309%.
With CC[C@H](C)[C@H](N)C(=O)N[C@@H](CC(N)=O)C(=O)N[C@@H](CC(C)C)C(=O)N[C@@H](CCCCN)C(=O)N[C@@H](C)C(=O)N[C@@H](CC(C)C)C(=O)N[C@@H](C)C(=O)N[C@@H](C)C(=O)N[C@@H](CC(C)C)C(=O)N[C@@H](C)C(=O)N[C@@H](Cc1c[nH]cn1)C(=O)N[C@@H](CCCCN)C(=O)N[C@H](C(=O)N[C@@H](CC(C)C)C(N)=O)[C@@H](C)CC [H11] the “Average (percentage cell inhibition), Dmastoparan MDA-MB231 12.5uM” value [1] was 27.1728% and the “Average (percentage cell inhibition), Mastoparan PBMC” value [2] was -0.6179%.
With CC[C@H](C)[C@H](N)C(=O)N[C@@H](CC(N)=O)C(=O)N[C@@H](CC(C)C)C(=O)N[C@@H](CCCCN)C(=O)N[C@H](C(=O)N[C@@H](CC(C)C)C(=O)N[C@@H](C)C(=O)N[C@@H](C)C(=O)N[C@@H](CC(C)C)C(=O)N[C@@H](C)C(=O)N[C@@H](CCCCN)C(=O)N[C@@H](CCCCN)C(=O)N[C@H](C(=O)N[C@@H](CC(C)C)C(N)=O)[C@@H](C)CC)[C@@H](C)O [T5] the “Average (percentage cell inhibition), Dmastoparan MDA-MB231 12.5uM” value [1] was 39.042% and the “Average (percentage cell inhibition), Mastoparan PBMC” value [2] was 12.9165%.
With CC[C@H](C)[C@H](N)C(=O)N[C@@H](CC(N)=O)C(=O)N[C@@H](CC(C)C)C(=O)N[C@@H](CCCCN)C(=O)N[C@@H](C)C(=O)N[C@@H](Cc1c[nH]cn1)C(=O)N[C@@H](C)C(=O)N[C@@H](C)C(=O)N[C@@H](CC(C)C)C(=O)N[C@@H](C)C(=O)N[C@@H](CCCCN)C(=O)N[C@@H](CCCCN)C(=O)N[C@H](C(=O)N[C@@H](CC(C)C)C(N)=O)[C@@H](C)CC [H6] the “Average (percentage cell inhibition), Dmastoparan MDA-MB231 12.5uM” value [1] was 1.275% and the “Average (percentage cell inhibition), Mastoparan PBMC” value [2] was -12.6494%.
